Assay results: the supplement of paper PMC10307832

Columns and labels:
Assay in all cases: relative viability (nuclei count vs DMSO), 5 days (fraction); higher = more cells survive
HCC-827 = tested on: HCC-827
Method in brief: (§1)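 Relative viability divides the nuclei count in treated wells by that in vehicle wells. Lung cancer cell lines were seeded in 1536-well plates, dosed by pin tool the next day, and fixed and stained after 5 days in one step with final 0.05% Triton X-100, 1% formaldehyde and 1 ug/ml Hoechst. Dosing was a single drug or a fixed anchor-drug dose plus five library-drug doses (not always all listed) in √10 steps, and values are medians of duplicate plates imaged at 4×.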

LCLC-97TM1 = tested on: LCLC-97TM1
Method in brief: as §1

NCI-H2405 = tested on: NCI-H2405
Method in brief: as §1

HCC-78 = tested on: HCC-78
Method in brief: as §1

NCI-H2126 = tested on: NCI-H2126
Method in brief: as §1

EPLC-272H = tested on: EPLC-272H
Method in brief: as §1

PC-14 = tested on: PC-14
Method in brief: as §1

201T = tested on: 201T
Method in brief: as §1

RERF-LC-KJ = tested on: RERF-LC-KJ
Method in brief: as §1

NCI-H1666 = tested on: NCI-H1666
Method in brief: as §1

NCI-H2087 = tested on: NCI-H2087
Method in brief: as §1

Work on `Nc1ccn([C@@H]2O[C@H](CO)[C@@H](O)[C@@H]2O)c(=O)n1` [Cytarabine] + C[C@@H](Oc1cc(-c2cnn(C3CCNCC3)c2)cnc1N)c1c(Cl)ccc(F)c1Cl [Crizotinib] (partner 1 µM) yielded a relative viability (HCC-827; first compound 0.005 µM) of 0.593, a relative viability (HCC-827; first compound 0.01581 µM) of 0.478 and a relative viability (HCC-827; first compound 0.05 µM) of 0.477. For the same molecule, the relative viability (HCC-827; first compound 0.1581 µM) was 0.197, the relative viability (HCC-827; first compound 0.5 µM) was 0.249 and the relative viability (LCLC-97TM1; first compound 0.005 µM) was 0.487. For the same molecule, the relative viability (LCLC-97TM1; first compound 0.01581 µM) was 0.213, the relative viability (LCLC-97TM1; first compound 0.05 µM) was 0.181 and the relative viability (LCLC-97TM1; first compound 0.1581 µM) was 0.115. The relative viability (LCLC-97TM1; first compound 0.5 µM) was 0.106, the relative viability (NCI-H2405; first compound 0.005 µM) was 0.754 and the relative viability (NCI-H2405; first compound 0.01581 µM) was 0.693. It also gave a relative viability (NCI-H2405; first compound 0.05 µM) of 0.592, a relative viability (NCI-H2405; first compound 0.1581 µM) of 0.464 and a relative viability (NCI-H2405; first compound 0.5 µM) of 0.327. It also gave a relative viability (HCC-78; first compound 0.005 µM) of 0.369, a relative viability (HCC-78; first compound 0.01581 µM) of 0.302 and a relative viability (HCC-78; first compound 0.05 µM) of 0.282. It also gave a relative viability (HCC-78; first compound 0.1581 µM) of 0.26, a relative viability (HCC-78; first compound 0.5 µM) of 0.2 and a relative viability (NCI-H2126; first compound 0.005 µM) of 0.916. The relative viability (NCI-H2126; first compound 0.01581 µM) was 1.01, the relative viability (NCI-H2126; first compound 0.05 µM) was 0.96 and the relative viability (NCI-H2126; first compound 0.1581 µM) was 0.78. It also gave a relative viability (NCI-H2126; first compound 0.5 µM) of 0.656, a relative viability (EPLC-272H; first compound 0.005 µM) of 0.667 and a relative viability (EPLC-272H; first compound 0.01581 µM) of 0.379. It also gave a relative viability (EPLC-272H; first compound 0.05 µM) of 0.577, a relative viability (EPLC-272H; first compound 0.1581 µM) of 0.326 and a relative viability (EPLC-272H; first compound 0.5 µM) of 0.368. For the same molecule, the relative viability (PC-14; first compound 0.005 µM) was 0.805, the relative viability (PC-14; first compound 0.01581 µM) was 0.84 and the relative viability (PC-14; first compound 0.05 µM) was 0.778. The relative viability (PC-14; first compound 0.1581 µM) was 0.439, the relative viability (PC-14; first compound 0.5 µM) was 0.2 and the relative viability (201T; first compound 0.005 µM) was 1.04. The relative viability (201T; first compound 0.01581 µM) was 0.999, the relative viability (201T; first compound 0.05 µM) was 1.01 and the relative viability (201T; first compound 0.1581 µM) was 0.97. For the same molecule, the relative viability (201T; first compound 0.5 µM) was 1, the relative viability (RERF-LC-KJ; first compound 0.005 µM) was 0.853 and the relative viability (RERF-LC-KJ; first compound 0.01581 µM) was 0.845. It also gave a relative viability (RERF-LC-KJ; first compound 0.05 µM) of 0.759, a relative viability (RERF-LC-KJ; first compound 0.1581 µM) of 0.502 and a relative viability (RERF-LC-KJ; first compound 0.5 µM) of 0.4. It also gave a relative viability (NCI-H1666; first compound 0.005 µM) of 0.794, a relative viability (NCI-H1666; first compound 0.01581 µM) of 0.945 and a relative viability (NCI-H1666; first compound 0.05 µM) of 0.612. The relative viability (NCI-H1666; first compound 0.1581 µM) was 0.358, the relative viability (NCI-H1666; first compound 0.5 µM) was 0.388 and the relative viability (NCI-H2087; first compound 0.005 µM) was 0.702. For the same molecule, the relative viability (NCI-H2087; first compound 0.01581 µM) was 0.886, the relative viability (NCI-H2087; first compound 0.05 µM) was 0.69 and the relative viability (NCI-H2087; first compound 0.1581 µM) was 0.731. It also gave a relative viability (NCI-H2087; first compound 0.5 µM) of 0.537.
